# Assay results from ChEMBL document CHEMBL3992485 (Medchemcomm, 2016).
# Activity calls are given as the source filed them. The rule behind the calls is not given here.
# How the values were obtained:
# HeLa [1] = assay: Induction of apoptosis in human HeLa cells assessed as late apoptotic cells at 0.1 uM after 24 hrs by Annexin-V-FITC/propidium iodide staining based flow cytometry (reference value: 3.1%); type: functional
# HeLa [2] = assay: Induction of apoptosis in human HeLa cells assessed as late apoptotic cells at 0.5 uM after 24 hrs by Annexin-V-FITC/propidium iodide staining based flow cytometry (reference value: 2.64%); type: functional
# HeLa [3] = assay: Induction of apoptosis in human HeLa cells after 24 hrs by Annexin-V-FITC/propidium iodide staining based flow cytometry; type: functional, cell-based
# HeLa [4] = assay: Induction of apoptosis in human HeLa cells assessed as viable cells at 0.5 uM after 12 hrs by Annexin-V-FITC/propidium iodide staining based flow cytometry (reference value: 91%); type: functional; details: read-out: Activity
# HeLa [5] = assay: Induction of apoptosis in human HeLa cells assessed as early apoptotic cells at 0.5 uM after 24 hrs by Annexin-V-FITC/propidium iodide staining based flow cytometry (reference value: 6.02%); type: functional
# HeLa [6] = assay: Induction of apoptosis in human HeLa cells assessed as necrotic cells at 0.1 uM after 24 hrs by Annexin-V-FITC/propidium iodide staining based flow cytometry (reference value: 0.084%); type: functional
# HeLa [7] = assay: Induction of apoptosis in human HeLa cells assessed as early apoptotic cells at 0.5 uM after 12 hrs by Annexin-V-FITC/propidium iodide staining based flow cytometry (reference value: 6.02%); type: functional
# MCF7 = assay: Antiproliferative activity against human MCF7 cells measured after 24 hrs by MTT assay; type: functional, cell-based; details: MCF7, 24 h
# [8] = Antiproliferative activity against human 293T cells measured after 24 hrs by MTT assay; type: cell-based; details: 293T (HEK-293T) cells
# HeLa [9] = assay: Cell cycle arrest in human HeLa cells assessed as accumulation at G1 phase at 0.8 uM after 12 hrs by propidium iodide staining based flow cytometry (reference value: 85.81%); type: functional
# HeLa [10] = assay: Inhibition of microtubule polymerization in human HeLa cells assessed as abnormal chromatin distribution at 0.2 uM after 24 hrs by DAPI staining based confocal microscopic analysis; type: cell-based
# HeLa [11] = assay: Cell cycle arrest in human HeLa cells assessed as accumulation at G1 phase at 0.5 uM after 12 hrs by propidium iodide staining based flow cytometry (reference value: 79.19%); type: functional
# HeLa [12] = assay: Induction of apoptosis in human HeLa cells assessed as early apoptotic cells at 0.1 uM after 24 hrs by Annexin-V-FITC/propidium iodide staining based flow cytometry (reference value: 2.41%); type: functional
# HeLa [13] = assay: Induction of apoptosis in human HeLa cells assessed as viable cells at 0.1 uM after 24 hrs by Annexin-V-FITC/propidium iodide staining based flow cytometry (reference value: 94.4%); type: functional; details: read-out: Activity
# HeLa [14] = assay: Cell cycle arrest in human HeLa cells assessed as accumulation at G1 phase at 0.2 uM after 12 hrs by propidium iodide staining based flow cytometry (reference value: 85.81%); type: functional
# HeLa [15] = assay: Induction of apoptosis in human HeLa cells assessed as early apoptotic cells at 0.4 uM after 24 hrs by Annexin-V-FITC/propidium iodide staining based flow cytometry (reference value: 2.41%); type: functional
# HeLa [16] = assay: Cell cycle arrest in human HeLa cells assessed as accumulation at G2/M phase at 0.5 uM after 24 hrs by propidium iodide staining based flow cytometry (reference value: 8.14%); type: functional
# HeLa [17] = assay: Induction of apoptosis in human HeLa cells assessed as viable cells at 0.4 uM after 24 hrs by Annexin-V-FITC/propidium iodide staining based flow cytometry (reference value: 94.4%); type: functional; details: read-out: Activity
# HeLa [18] = assay: Induction of apoptosis in human HeLa cells assessed as necrotic cells at 0.5 uM after 24 hrs by Annexin-V-FITC/propidium iodide staining based flow cytometry (reference value: 0.35%); type: functional
# HeLa [19] = assay: Induction of apoptosis in human HeLa cells assessed as necrotic cells at 0.5 uM after 36 hrs by Annexin-V-FITC/propidium iodide staining based flow cytometry (reference value: 0.35%); type: functional
# HeLa [20] = assay: Cell cycle arrest in human HeLa cells assessed as accumulation at S phase at 0.5 uM after 24 hrs by propidium iodide staining based flow cytometry (reference value: 33.78%); type: functional
# HeLa [21] = assay: Induction of apoptosis in human HeLa cells at 0.5 uM by Annexin-V-FITC/propidium iodide staining based flow cytometry; type: functional, cell-based; details: TDE = time-dependent effect
# HeLa [22] = assay: Induction of apoptosis in human HeLa cells assessed as viable cells at 0.5 uM after 36 hrs by Annexin-V-FITC/propidium iodide staining based flow cytometry (reference value: 91%); type: functional; details: read-out: Activity
# HeLa [23] = assay: Induction of apoptosis in human HeLa cells assessed as viable cells at 0.8 uM after 24 hrs by Annexin-V-FITC/propidium iodide staining based flow cytometry (reference value: 94.4%); type: functional; details: read-out: Activity
# HeLa [24] = assay: Cell cycle arrest in human HeLa cells assessed as accumulation at G2/M phase at 0.5 uM after 12 hrs by propidium iodide staining based flow cytometry (reference value: 8.14%); type: functional
# HeLa [25] = assay: Cell cycle arrest in human HeLa cells assessed as accumulation at G2/M phase at 0.2 uM after 12 hrs by propidium iodide staining based flow cytometry (reference value: 2.15%); type: functional
structure (smiles),measurement,setting,value
CCn1cc(C(=O)N2CCN(S(=O)(=O)c3c(C(C)C)cc(C(C)C)cc3C(C)C)CC2)c2ccccc21,Activity,HeLa [1],5.71%
same,Activity,HeLa [2],6.84%
same,Activity,HeLa [3],Dose-dependent effect
same,viability at 0.5 µM,HeLa [4],87.9%
same,Activity,HeLa [5],20.1%
same,Activity,HeLa [6],0.141%
same,Activity,HeLa [7],8.12%
same,IC50,MCF7,0.35 µM
same,CC50 at 24 h,[8],424 µM
same,Activity,HeLa [9],10.02%
same,inhibition,HeLa [10],Active
same,Activity,HeLa [11],42.86%
same,Activity,HeLa [12],9%
same,viability at 0.1 µM,HeLa [13],85.1%
same,Activity,HeLa [14],31.86%
same,Activity,HeLa [15],23.1%
same,Activity,HeLa [16],54.57%
same,viability at 0.4 µM,HeLa [17],63.6%
same,Activity,HeLa [18],0.303%
same,Activity,HeLa [19],0.329%
same,Activity,HeLa [20],55.73%
same,Activity,HeLa [21],Tde
same,viability at 0.5 µM,HeLa [22],53.1%
same,viability at 0.8 µM,HeLa [23],44%
same,Activity,HeLa [24],18.43%
same,Activity,HeLa [25],20.46%
